Laboratory results from PubChem BioAssay AID1919009 (Molecular Pharmacology Branch, DTP, NCI, 2023).
Several values for one entry are separate records, joined by “and”; a condition that tells them apart may be missing. Equal values may be shown once.

Test system: K24384-001-R-PDC complex spheroid growth
Assay: Anticancer human tumor K24384-001-R-PDC patient-derived pancreatic adenocarcinoma cell line growth inhibition [AhR]
Conditions: for viability, T/C: stronger effect = lower value
Excerpt: Multicellular complex tumor spheroid response to aryl hydrocarbon receptor antagonists in combination with a variety of drugs and investigational agents in selected tumor cell lines
The current study was undertaken to assess response to aryl hydrocarbon receptor antagonists in combination with standard-of-care drugs and investigational agents in solid tumor complex spheroid models. Complex spheroids include a stromal component modeled by human endothelial cells (HUVEC) and fibroblasts modeled by human mesenchymal stem cells (MSCs). The concentration ranges selected for each drug and investigational agent were based upon clinically achievable concentrations if the clinical Cmax of the agent was known.
Compounds. The drugs and investigational agents: BAY 2416964 (NSC825713), GNF351 (NSC835774), CH-223191 (NSC835775), CPI-455 (NSC825282), aza-TdCyd (NSC777586), decitabine (NSC127716), belinostat (NSC758774), entinostat (NSC756642), pevonedistat (NSC761192), tazemetostat (NSC777109), talazoparib (NSC765396), olaparib (NSC753686), selinexor (NSC780203), nedisertib (M3814, NSC802822), bortezomib (NSC756655), venetoclax (NSC766270), doxorubicin (NSC123127), elimusertib (BAY189344, NSC800525), ceralasertib (AZD6738, NSC777638), TAK-243 (NSC785004), alisertib (NSC759677), etoposide (NSC141540), topotecan (NSC609699), eribulin (NSC707389), gemcitabine (NSC613327), carboplatin (NSC241240), cisplatin (NSC119875), and SN-38 (NSC673596) were obtained from the National Cancer Institute (NCI) Developmental Therapeutics Program Chemical Repository (32). The FDA-approved anticancer drug set is available from the Developmental Therapeutics Program at https://dtp.cancer.gov/organization/dscb/obtaining/available plates.htm. […] The stock solutions were prepared in dimethyl sulfoxide (DMSO, Sigma-Aldrich, St. Louis, MO, cat. D2650), except for the platinum compounds which were prepared in saline (Quality Biological, Gaithersburg, MD, cat. 114-055-101), at 800-fold the tested concentration and stored at -70 degrees C prior to their use. All drugs and investigational agents were tested over a range starting from a high concentration at or near the clinical Cmax and decreasing in half-log increments. If the clinical Cmax for an agent had not been determined, the highest concentration tested was 10 microM (Table 1).
Cell Culture. All cells were maintained in an incubator at 37 degrees C and 5% CO2 with 95% humidity. The PDC lines were cultured according to standard operating procedures established by the NCI PDMR (https://pdmr.cancer.gov). Briefly, all PDCs were thawed and cultured in Matrigel-coated flasks prepared with a working solution of 1X Ham's F-12 nutrient mix, without supplementation (Invitrogen, Waltham, MA, cat. 11765054), 100 U/mL penicillin-streptomycin (Invitrogen, cat. 15140122), and 2.5% Matrigel (Corning Inc., Corning, NY, cat. 354248) for the first three passages. All PDCs were cultured in complete DMEM/F-12 media containing advanced DMEM/F-12 (Invitrogen, cat. 12634028), 4.9% defined fetal bovine serum, heat inactivated (HyClone Laboratories Inc., Logan, UT, cat. SH30070.03HI), 389 ng/mL hydrocortisone (Sigma-Aldrich, cat. H4001), 9.7 ng/mL human EGF recombinant protein (Invitrogen, cat. PHG0313), 23.4 microg/mL adenine (Sigma-Aldrich, cat. A2786), 97.3 U/mL penicillin-streptomycin (Invitrogen, cat. 15140122), 1.9 mM L-glutamine (Invitrogen, cat. 25030081), and 9.7 microM Y-27632 dihydrochloride (Tocris Bioscience, Bristol, United Kingdom, cat. 1254). The PDCs were cultured in complete DMEM/F12 media without 10 microM Y-27632 dihydrochloride for at least two passages prior to the screen. The established cell lines NCI-H1341 and […] were cultured in DMEM/F-12, HEPES (Invitrogen, cat. 11330032), 5% defined fetal bovine serum (HyClone Laboratories Inc., cat. SH30070.03), ITS premix universal culture supplement [insulin (5 microg/mL), transferrin (5 microg/mL), and selenious acid (5 ng/mL)] […]
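Throughout, for viability, T/C: percent of DMSO vehicle-treated spheroid viability set as 100%.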

IC50 (curve of compound) | Structure (SMILES) | viability, T/C (compound 0.0316 µM) | viability, T/C (compound 0.1 µM) | viability, T/C (compound 0.316 µM) | viability, T/C (compound 1 µM) | viability, T/C (compound 3.16 µM) | viability, T/C (compound 10 µM) | also measured
55.5 nM and 48.3 nM and 127 nM | COc1cccc2c1C(=O)c1c(O)c3c(c(O)c1C2=O)CC(O)(C(=O)CO)CC3OC1CC(N)C(O)C(C)O1 (stereo not drawn) | 55.9% and 53.8% and 60.3% | 42.6% and 43.3% and 55.6% | 27.5% and 27% and 27.3% | 7.51% and 8.21% and 8.1% | 2.73% and 2.56% and 3.17% | 7.73% and 8.61% and 11.3% | 
 | Cc1ccccc1N=Nc1ccc(NC(=O)c2ccnn2C)c(C)c1 |  |  |  |  |  |  | IC50 (compound alone, run of 06/14/2022): > 10000 nM
 | Cc1cncc(-c2nc(NCCc3c[nH]c4ccccc34)c3ncn(C(C)C)c3n2)c1 |  |  |  |  |  | 10.4% [middle of 20 runs] | IC50 (compound alone, run of 06/06/2022): 5.54 µM [middle of 23 runs]
> 100 nM | Cn1ncnc1C1c2n[nH]c(=O)c3cc(F)cc(c23)NC1c1ccc(F)cc1 (stereo not drawn) | 97% and 97.8% and 98.7% | 82% and 81.5% and 75.4% |  |  |  |  | viability, T/C (compound 0.000316 µM): 104% and 93.7% and 94.2%; viability, T/C (compound 0.001 µM): 117% and 105% and 102%; viability, T/C (compound 0.00316 µM): 93.1% and 104% (2×); viability, T/C (compound 0.01 µM): 91.7% and 102% and 105%
2590 nM and 1420 nM and 2770 nM | NS(=O)(=O)OCC1CC(n2ccc3c(NC4CCc5ccccc54)ncnc32)CC1O (stereo not drawn) | 102% and 101% and 100% | 119% and 96.5% and 107% | 107% (2×) and 102% | 95.7% and 59% and 75.3% | 40.4% and 32.9% and 49.2% | 27.5% and 21.6% and 24.1% | 
2590 nM and 2280 nM and 2140 nM | Nc1ccccc1NC(=O)c1ccc(CNC(=O)OCc2cccnc2)cc1 | 94% and 112% and 106% | 98% and 108% and 107% | 85% and 93.4% and 96.5% | 78.2% and 67.5% and 60.9% | 43.8% and 43.9% and 45.6% | 8.72% and 6.99% and 9.95% | 
458 nM and 419 nM and 191 nM | Nc1ccn(C2OC(CO)C(O)C2(F)F)c(=O)n1 (stereo not drawn) | 75.8% and 84.6% and 71% | 67.7% and 76.7% and 59.5% | 50.6% and 52.6% and 41.6% | 42.8% and 39.7% and 32.8% | 37.3% and 40.7% and 22.7% | 28.5% and 31.3% and 20.2% | 
> 1000 nM | Nc1ncn(C2CC(O)C(CO)O2)c(=O)n1 (stereo not drawn) | 108% and 95.7% and 101% | 95.2% and 101% and 82.9% | 87.2% and 88.8% and 84.9% | 79.4% and 79.5% and 76.8% |  |  | viability, T/C (compound 0.00316 µM): 111% and 99.4% and 104%; viability, T/C (compound 0.01 µM): 94.1% and 108% and 112%
> 300 nM | Nc1ncn(C2CC(O)C(CO)S2)c(=O)n1 (stereo not drawn) |  |  |  |  |  |  | viability, T/C (compound 0.000949 µM): 110% and 102% and 115%; viability, T/C (compound 0.003 µM): 104% and 111% and 121%; viability, T/C (compound 0.00949 µM): 105% and 93% and 90.2%; viability, T/C (compound 0.03 µM): 98% and 87.8% and 92.5%; viability, T/C (compound 0.0949 µM): 80.2% and 77.9% and 76.2%; viability, T/C (compound 0.3 µM): 81.4% and 64.2% and 70.1%
2100 nM and 2280 nM and 2000 nM | O=C(C=Cc1cccc(S(=O)(=O)Nc2ccccc2)c1)NO | 104% and 118% and 108% | 104% and 115% and 114% | 96.2% and 116% and 99.6% | 78.5% and 87.3% and 81.8% | 34.4% and 35.4% and 29.5% | 8.12% and 8.37% and 2.97% | 
246 nM and 245 nM and 422 nM | O=C(C=Cn1cnc(-c2cc(C(F)(F)F)cc(C(F)(F)F)c2)n1)NNc1cnccn1 |  |  |  |  |  |  | viability, T/C (compound 0.00949 µM): 103% and 108% and 124%; viability, T/C (compound 0.03 µM): 102% and 118% and 111%; viability, T/C (compound 0.0949 µM): 83.7% and 73.7% and 79.4%; viability, T/C (compound 0.3 µM): 42.4% and 48.4% and 54.7%; viability, T/C (compound 0.949 µM): 29.9% and 28.1% and 41.4%; viability, T/C (compound 3 µM): 22.9% and 24.3% and 29.5%
> 10000 nM | O=C(c1cc(Cc2n[nH]c(=O)c3ccccc23)ccc1F)N1CCN(C(=O)C2CC2)CC1 | 104% and 103% and 116% | 132% and 100% and 105% | 105% and 95.4% and 115% | 95.4% and 94.5% and 90.4% | 88.2% and 96.2% and 90.5% | 82.8% and 62.4% and 76% | 
